Data taken from patent US5912183A, “Peptide inhibitors of mitogenesis and motogenesis” (Pharmacia & Upjohn S.p.A., priority 1993, dated 1999).
Residues, ends and D or L forms follow the SMILES beside them.

Key:
[1] = system: N- and C-SH2 domains of p85; experiment: BIAcore inhibition of binding of GST-SH2 domains to immobilized PDGF receptor phosphopeptide Y751; set-up: species or system bovine; conditions: range of phosphopeptide concentrations; 25° C.; FIG. 7
Method: FIG. 7. Evaluation of the relative affinities of phosphotyrosine 1313, 1349 and 1356 for the N- and C- SH2 domains of p85. Affinities were determined by biospecific interaction analysis with the BIAcore instrument (Jonsson, U., Fagerstam, L., Roos, H., Ronnberg, J., Sjolander, Stenber, E., Stahlberg, R. Urbaniczky, C., Ostlin, H., and Malmquist. 1991. Surface plasmon reasonance and microfluidics for real time biospecific interaction analysis. Biotechniques 11: 520-527; Jonsson, U. and M. Malmquist. 1992. Real time biospecific analysis. The integration of surface plasmon reasonance detection, general biospecific interface chemistry and microfluidics into one analytical system p. 291-336. In F. Turner (ed), Advances in Biosensors, vol. 2 JAI Press, London; Karlsson, R., Michaelsson, A., and L. Mattsson. 1991. Kinetic analysis of monoclonal antibody-antigen interactions with a new biosensor based analytical system. J. Immunol. Meth. 145: 229-246).
Relative affinities were determined by measuring the ability of the phosphopeptides to inhibit the interaction of the SH2 domains with an immobilized phosphopeptide (DMSKDESVDY*VPMLDMK) (SEQ. ID NO: 26) which includes Y751 in the human PDGF receptor. Panel A and B show the results of these measurements, expressed as % inhibition of binding to phosphopeptide Y751.
GST-SH2 domain fusion proteins. The N- and C-SH2 domains of the bovine PI 3-kinase p85 subunit (amino acids 314-431 and 612-722) were obtained by polymerase chain reaction and cloned into the pGEX-2 bacterial expression vector (Smith, D. B., and Johnson K. S., Gene 67: 31-40 (1988).
Glutathione-S-transferase (GST)-SH2 fusion proteins were purified from bacterial lysates by glutathione affinity chromatography (Panayotou, G., et al. EMBO J., 11: 4261-4272 (1992)). Amino acid analysis on an Applied Biosystems 420A analyzer was used to determine the concentration of the recombinant proteins.
Analysis of the interaction of Y1349 and Y1356 with the p85 N- and C- SH2 domains using the BIAcore. […]

[2] = target: T1, binding of p85 to HGF/SF receptor (Bos taurus, UniProt P23727); experiment: Competition of phosphopeptides with p85 for association with immobilized recombinant HGF/SF receptor (in vitro kinase assay readout); set-up: species or system human; conditions: phosphopeptide 10 μM; p85 from Sf9 lysates; FIG. 1
T1 construct: made in house; host or cells: Sf9 insect cells (baculovirus), for both p85 and the receptor
Method: FIG. 1. Inhibition of binding of p85 to HGF/SF receptor by tyrosine-phosphorylated peptides. Recombinant HGF/SF receptor was purified by immunoprecipitation from baculovirus-infected Sf9 cells using a rabbit polyclonal antiserum and phosphorylated with cold ATP. Lysates of Sf9 cells expressing p85 were pre-incubated with each of the phosphopeptides (10 μM). The lysates were then allowed to associate with immobilized recombinant HGF/SF receptors. Following association the complex was washed and receptor-bound p85 was detected by an in vitro kinase assay, as described in Materials and Methods of Example 4. The phosphopeptides are identified by the number of the amino terminal tyrosine.
FIG. 2. Inhibition of binding of p85 to HGF/SF receptor with different concentrations of tyrosine-phosphorylated peptides. The phosphopeptides which efficiently out-competed p85 binding to the HGF/SF receptor (FIG. 1) were used at increasing concentrations (10 nM, 100 nM, 1 μM from left to right) to define their relative affinities for p85. Conditions of the experiment were as in FIG. 1. Phosphopeptide 1365 was used as a negative control for p85 interaction.
In vitro association experiments. Sf9 cells expressing the recombinant HGF/SF receptor (approximately 4×10^6 cells/point) were lysed 36 hours after infection in buffer A (10 mM Tris-HCl buffer pH 7.5, 10% glycerol, 1% Triton X-100, 150 mM NaCl, 5 mM EDTA), supplemented with 0.2 mM phenyl-methylsulfonyl fluoride, 1 μg/ml leupeptin, 0.1 TIU/ml aprotinin and 1 μg/ml pepstatin. Lysates were clarified at 15,000×g at 4° C. for 15 minutes and the supernatants immunoprecipitated after 2 hours incubation with anti-Met antibodies coupled to Protein A-Sepharose. Immunocomplexes were washed three times with buffer A, once with buffer B (10 mM Tris-HCl pH 7.4, 100 mM NaCl, 1 mM EDTA) and once with buffer C (25 mM 4-(2-hydroxyethyl)-1-piperazine-ethanesulfonic acid (HEPES) buffer pH 7.2, 100 mM NaCl, 5 mM MgCl2). Samples were pre-phosphorylated by incubation for 15 minutes at 25° C. in buffer C with 10 μM unlabelled ATP and then washed three times with cold buffer A supplemented with 1 mM sodium ortho-vanadate. Association between the immobilized receptor and the baculovirus-expressed p85 was carried out as previously described (Bardelli, A., et al., Oncogene 7: 1973-1978 (1992)). For the association experiments with the PI 3-kinase holoenzyme three days serum-starved A549 cells (approx. 2×10^6 cells/point) were used as a source of PI 3-kinase. A549 cells were Dounce-homogenized in MOPS buffer (20 mM 3-(N-morpholino)propanesulfonic acid) (pH 7.5), 1 mM MgCl2, 0.1 mM EDTA, 200 mM sucrose, 1 mM sodium ortho-vanadate), supplemented with 0.2 mM phenylmethylsulfonyl fluoride, 1 μg/ml leupeptin, 0.1 TIU/ml aprotinin and 1 μg/ml pepstatin. Homogenates were centrifuged at 100,000×g for 20 minutes at 4° C. When checking for the ability of phosphopeptides to block the association with the receptor, cell lysates were pre-incubated with the phosphopeptides for 1 hour at 4° C. prior to incubation with the immobilized recombinant HGF/SF receptor. Following association, immunocomplexes were washed three times with buffer A, twice with buffer D (0.5M LiCl, 100 mM Tris-HCl pH 7.6), and twice with buffer B.
The presence of the p85 subunit of the PI 3-kinase in the receptor immunoprecipitate was determined by: i) labelling of the receptor and associated proteins with [γ-^32 P]ATP by in vitro kinase assay; ii) Western immunoblotting; iii) PI 3-kinase activity assay.
In vitro kinase assay. Receptor-associated proteins were labelled in 20 μl of buffer C, in the presence of 10 μCi [γ-^32 P]ATP (specific activity 7,000 Ci/Mm; Amersham) at 25° C. for 15 minutes. The reaction was stopped by adding 1 ml of ice-cold Buffer A without protease inhibitors. Samples were washed three times with cold buffer A. The labelled immunocomplexes were eluted from Protein A-Sepharose in boiling Laemmli buffer. […]

T1 sequence (P23727 whole entry): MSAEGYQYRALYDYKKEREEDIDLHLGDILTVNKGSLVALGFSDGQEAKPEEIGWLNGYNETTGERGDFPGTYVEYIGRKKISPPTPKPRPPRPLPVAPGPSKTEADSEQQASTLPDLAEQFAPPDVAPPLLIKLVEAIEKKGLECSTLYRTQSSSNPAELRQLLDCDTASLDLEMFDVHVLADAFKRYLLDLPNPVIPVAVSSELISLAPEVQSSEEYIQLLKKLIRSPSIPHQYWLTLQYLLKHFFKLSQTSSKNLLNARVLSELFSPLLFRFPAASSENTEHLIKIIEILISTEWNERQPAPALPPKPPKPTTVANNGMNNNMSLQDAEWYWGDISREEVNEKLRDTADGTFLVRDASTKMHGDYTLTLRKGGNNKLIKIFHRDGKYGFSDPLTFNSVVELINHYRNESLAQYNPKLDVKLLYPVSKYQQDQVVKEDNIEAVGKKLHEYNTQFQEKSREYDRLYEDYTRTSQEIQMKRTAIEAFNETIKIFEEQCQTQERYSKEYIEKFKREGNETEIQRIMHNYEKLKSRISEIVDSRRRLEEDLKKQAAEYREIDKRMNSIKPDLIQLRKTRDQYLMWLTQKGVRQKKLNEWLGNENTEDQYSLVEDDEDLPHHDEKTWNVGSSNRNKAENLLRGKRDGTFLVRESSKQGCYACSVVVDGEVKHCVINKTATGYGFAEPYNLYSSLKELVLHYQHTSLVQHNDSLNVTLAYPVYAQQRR

| Compound | Apparent relative affinity: inhibition of binding of p85 N- and C-SH2 domains to phosphopeptide Y751 [1] | Inhibition of binding of p85 to HGF/SF receptor [2] |
| --- | --- | --- |
| CC(C)[C@H](NC(=O)[C@H](Cc1c[nH]cn1)NC(=O)[C@@H](NC(=O)[C@@H](N)Cc1ccc(OP(=O)(O)O)cc1)C(C)C)C(=O)N[C@@H](CC(N)=O)C(=O)N[C@@H](C)C(=O)N[C@H](C(=O)N[C@@H](Cc1ccc(O)cc1)C(=O)O)[C@@H](C)O [H-Tyr*-Val-His-Val-Asn-Ala-Thr-Tyr-OH] (HELM PEPTIDE1{[N[C@@H](Cc1ccc(OP(=O)(O)O)cc1)C(=O)[*:2]].V.H.V.N.A.T.Y}$$$$V2.0) | inhibit binding of p85 N- and C-SH2 domains to phosphopeptide Y751, but at higher concentrations | efficiently outcompeted p85 |
| CC(C)[C@H](NC(=O)[C@H](CS)NC(=O)[C@H](CCCCN)NC(=O)[C@@H](NC(=O)[C@H](CC(N)=O)NC(=O)[C@@H](NC(=O)[C@@H](N)Cc1ccc(OP(=O)(O)O)cc1)C(C)C)C(C)C)C(=O)N[C@@H](C)C(=O)O [H-Tyr*-Val-Asn-Val-Lys-Cys-Val-Ala-OH] (HELM PEPTIDE1{[N[C@@H](Cc1ccc(OP(=O)(O)O)cc1)C(=O)[*:2]].V.N.V.K.C.V.A}$$$$V2.0) | inhibit binding of p85 N- and C-SH2 domains to phosphopeptide Y751, but at higher concentrations | efficiently outcompeted p85 |
